Experimental findings from patent US10195209B2, “Anti-huLRRC15 antibody drug conjugates and methods for their use” (AbbVie Inc., priority 2015, dated 2019) are described below.

In data set [1] the test system is U118MG (glioblastoma) xenograft tumors. As to the kind of experiment: U118MG glioblastoma xenograft model. Format: in vivo, SCID mice. Here is the method:
For the experiments, ten million cells (U118MG) that were grown in vitro were inoculated subcutaneously per mouse into the right flank of female SCID mice. Tumors were size matched at˜100 mm^3, and dosed intraperitoneally (IP) Q6Dx2 (1 dose given every 6 days for a total of 2 doses) as shown in FIG. 14A. Measurements of the length (L) and width (W) of the tumors were taken via electronic caliper and the volume was calculated according to the following equation: V=L×W^2/2.
For the experiment, U118MG human glioblastoma cells were grown in vitro, and were inoculated subcutaneously (10 million cells per mouse) into the right flank of female SCID mice. Tumors were size matched at ˜150 mm^3, antibodies and immunoconjugates were administered IP Q4Dx6 (one dose give every 4 days for a total of 6 doses) at 10 or 6 mg/kg, respectively. At Day 165 post sizematch when tumors had regrown to ˜450 mm^3, animals were retreated with huM25-vcMMAE-DAR4 IP Q4Dx3 (one dose given every 4 days for a total of 3 doses) at 6 mg/kg.
Four preparations of huM25-vcMMAE that differed in their relative DAR profile (E2, E2/E4, E4 or DAR4) were tested for efficacy in U118MG tumors. […]
The potency of anti-huLRRC15 ADCs as compared to current standards of care was assessed in xenograft model U118MG (glioblastoma), and patient-derived xenograft models CTG-0241 osteosarcoma) and CTG-1095 (osteosarcoma). […]

Data set [2] deals with EBC-1 (squamous NSCLC) cells. As to the kind of experiment: In vitro cell killing assay (Cell TiterGlo), huLRRC15-negative EBC-1. Format: cell-based, human. Particulars: huLRRC15-negative EBC-1, 4 days. How it is done: (§1) In the in vitro cell killing assays, cells are seeded at 500-3000 cells per well into 96-well plates with varying concentrations ([…]) of antibodies and ADCs. The cells are incubated for 4 days in culture and then the percent cell viability relative to untreated cells is determined using Cell TiterGlo™ which measures ATP content within the treated cells.
A general note: ATP-based viability assays read luminescence as a measure of living cells.

Data set [3] deals with RPMI-7951 (melanoma) cells. As to the kind of experiment: In vitro cell killing assay (Cell TiterGlo), RPMI-7951. Format: cell-based, human. Particulars: RPMI-7951, 4 days. How it is done: as §1
Data set [4] has as its system CTG-0241 (human osteosarcoma) patient-derived xenograft. As to the kind of experiment: CTG-0241 patient-derived osteosarcoma xenograft model. Format: in vivo, nu/nu mice. The text has this: Female nu/nu mice were implanted unilaterally on the left flank region with CTG-0241 tumor fragments harvested from host animals, each implanted from a specific passage lot. When tumors reached approximately 250-350 mm^3, animals were matched by tumor volume into treatment and control groups and dosing initiated (Day 0).
In FIG. 18B, female nu/nu mice were implanted unilaterally on the left flank region with CTG-0241 tumor fragments harvested from host animals, each implanted from a specific passage lot. When tumors reached approximately 250-350 mm^3, animals were matched by tumor volume into treatment and control groups and dosing initiated (Day 0). Dosing with isotype mAb or ADCs was performed IP at 6 mg/kg on a Q4Dx6 (one dose given every 4 days for a total of 6 doses), while cisplatin was dosed IP Q7Dx3 (once every 7 days for a total of 3 doses) at 7.5 mg/kg, doxorubicin was dosed intravenously (IV) once daily at 1 mg/kg for 5 days, gemcitabine was dosed IP Q3Dx4 (every 3 days for a total of 4 doses) at 80 mg/kg, and ifosfamide was dosed IP QDx3 (one dose given every day for a total of 3 doses) at 120 mg/kg.

In data set [5] the test system is CTG-1095 (human osteosarcoma) patient-derived xenograft. As to the kind of experiment: CTG-1095 patient-derived osteosarcoma xenograft model. It is filed as in vivo, NSG mice. The text has this:
Female NSG mice were implanted unilaterally on the left flank region with CTG-1095 tumor fragments harvested from host animals, each implanted from a specific passage lot. When tumors reached approximately 250-350 mm^3, animals were matched by tumor volume into treatment and control groups and dosing initiated (Day 0).
In FIG. 18C, female NSG mice were implanted unilaterally on the left flank region with CTG-1095 tumor fragments harvested from host animals, each implanted from a specific passage lot. When tumors reached approximately 150-300 mm^3, animals were matched by tumor volume into treatment and control groups and dosing initiated (Day 0). Dosing with isotype mAb or ADCs was performed IP at 12 mg/kg Q4Dx6 (one dose given every 4 days for a total of 6 doses), while cisplatin was dosed intraperitoneally Q7Dx2 (once every 7 days for a total of 2 doses) at 7.5 mg/kg.
In FIG. 18D, female NSG mice were implanted unilaterally on the left flank region with CTG-1095 tumor fragments harvested from host animals, each implanted from a specific passage lot. When tumors reached approximately 200 mm^3, animals were matched by tumor volume into treatment and control groups and dosing initiated (Day 0). Dosing with isotype mAb or ADCs was performed IP at 6 mg/kg on a Q4Dx6 (one dose given every 4 days for a total of 6 doses), while gemcitabine was dosed IP Q3Dx4 (every 3 days for a total of 4 doses) at 80 mg/kg.

Data set [6] relates to U118MG (glioblastoma) cells. As to the kind of experiment: In vitro cell killing assay (Cell TiterGlo), U118MG. Format: cell-based, human. Particulars: 4 days, percent cell viability by Cell TiterGlo. Here is the method:
as §1
Preparation of the huM25-PBD-DAR2 ADC was accomplished according to the procedure described in Example 8.
FIG. 13E depicts the potent in vitro 4-day cell killing ability of anti-huLRRC15 ADC huM25-PBD-DAR2 as compared with the isotype control PBD DAR2 ADC in U118MG (glioblastoma) cells.

Data set [7] has as its system G292 clone A141B1 (osteosarcoma) cells. As to the kind of experiment: In vitro cell killing assay (Cell TiterGlo), G292 clone A141B1. Format: cell-based, human. The following applies: G292 clone A141B1, 4 days. How it is done: as §1
Data set [8] in a line: Rat tolerability experiment. Format: in vivo, Sprague Dawley wild type rats. The following applies: single IV dose at MMAE equivalent levels, FIG. 16A. Here is the method: The safety profiles of E2, E4 and E2/E4 preparations of huM25-vcMMAE ADCs were assessed in a rat tolerability experiment (FIGS. 16A, 16B). For the assay, Sprague Dawley wild type rats were dosed with a single IV dose at MMAE equivalent levels of each antibody drug conjugate. […] Double the protein antibody dose was delivered with equal amounts of MMAE, and improved survival for E2 was seen over E4. Fewer deaths occurred in the animals dosed with E2 than E4 ADCs, and the deaths that did occur happened later on Day 8. Broad drug distribution DAR4 has an MTD of 20 mg/kg.

The subject of data set [9] is human BM-MSC (Lonza) mesenchymal stem cells. As to the kind of experiment: In vitro cell killing, human BM-MSC treated with TGFβ. It is filed as cell-based. The following applies: 10 ng/mL TGFβ, same doses.
Setting [10] is: ADC alone, 6 mg/kg IP Q4Dx6, FIG. 18D.
The mark [11] stands for this setting: gemcitabine alone, 80 mg/kg IP Q3Dx4, FIG. 18D.

Where only a bound is given, the exact number is not on record here.

`Cn1nnc2c(C(N)=O)ncn2c1=O` [temozolomide, reference compound]: in [1] (20 mg/kg orally daily for first 5 days of a 7-day cycle, two cycles, FIG. 18A), the TGImax was determined as 67%.
As for “huM25-vcMMAE-E2: huM25-vcMMAE ADC preparation enriched in DAR2 by hydrophobic interaction chromatography”, the “in vitro cell killing” value in data set [2] is on record as “minimal cancer cell killing”. Also, the “in vitro cell killing compared with isotype ADC” value in [3], in data set [6] and in data set [7] was “superior to that seen with non-targeting isotype-vcMMAE ADCs” throughout. The TGImax in data set [4] (6 mg/kg IP Q4Dx6, FIG. 14B/18B) is 91%; in [5] (12 mg/kg IP Q4Dx6, FIG. 14C/18C), 87%; in data set [5] (setting [10]), 75%. The molecule also registered a TGD in data set [5] (setting [10]) of 193%. For the same molecule, the “maximum tumor growth inhibition (TGImax)” value in data set [1] (MMAE-equivalent doses IP every seven days for three doses, FIG. 17) is reported as not below 84%. The “death, percentage of animals” value in data set [8] is listed as 25%.
In data set [4] (1 mg/kg IV once daily for 5 days, FIG. 18B), `COc1cccc2c1C(=O)c1c(O)c3c(c(O)c1C2=O)C[C@@](O)(C(=O)CO)C[C@@H]3O[C@H]1C[C@H](N)[C@H](O)[C@H](C)O1` [doxorubicin] gave a TGImax of 27%.
Consider `O=P1(NCCCl)OCCCN1CCCl` (stereo not shown) [ifosfamide], for which the TGImax in data set [4] (120 mg/kg IP QDx3, FIG. 18B) turned out to be 10%.
The molecule `Nc1ccn([C@@H]2O[C@H](CO)[C@@H](O)C2(F)F)c(=O)n1` [gemcitabine, reference compound] yielded a TGImax in data set [4] (80 mg/kg IP Q3Dx4, FIG. 18B) of 64%. In [5] (setting [11]), this molecule yielded a TGD of 241% and a TGImax of 84%.
In the case of `N.N.[Cl][Pt][Cl]` [cisplatin, reference compound], the TGImax in data set [4] (7.5 mg/kg IP Q7Dx3, FIG. 18B) was determined as 44%; in data set [5] (7.5 mg/kg IP Q7Dx2, FIG. 18C), 70%.

B1: huAD208.4.1-PBD-DAR2: anti-LRRC15 PBD ADC of huAD208.4.1, cross-reactive to human and mouse LRRC15 (conjugate)
VH: EVQLVQSGAEVKKPGSSVKVSCKASGFTFTDYYIHWVKQAPGQGLEWIGLVYPYIGGTNYNQKFKGKATLTVDTSTTTAYMEMSSLRSEDTAVYYCARGDNKYDAMDYWGQGTTVTVSS
VL: DIVLTQSPDSLAVSLGERATINCRASQSVSTSSYSYMHWYQQKPGQPPKLLIKYASSLESGVPDRFSGSGSGTDFTLTISSLQAEDVAVYYCEQSWEIRTFGGGTKVEIK
For B1, the “in vitro cell killing effect compared with isotype-PBD-DAR2” value in data set [9] is listed as “higher cell killing effect than isotype-PBD-DAR2”.
